Measurements from publication PMC4685510, “A Cell Biologist’s Field Guide to Aurora Kinase Inhibitors” (Frontiers in Oncology, 2015).

Assays:
Assay in all cases: biochemical
Type in all cases: biochemical
[1] = target: T1, 363 human kinases (including Aurora A/B/C) (Homo sapiens, UniProt P20794); details: MAK; for remaining activity at 0.1 µM: 100 nM; for remaining activity at 0.1 µM / remaining activity at 0.5 µM: read-out: % Enzyme Activity (relative to DMSO controls)
T1 sequence (P20794 1-623): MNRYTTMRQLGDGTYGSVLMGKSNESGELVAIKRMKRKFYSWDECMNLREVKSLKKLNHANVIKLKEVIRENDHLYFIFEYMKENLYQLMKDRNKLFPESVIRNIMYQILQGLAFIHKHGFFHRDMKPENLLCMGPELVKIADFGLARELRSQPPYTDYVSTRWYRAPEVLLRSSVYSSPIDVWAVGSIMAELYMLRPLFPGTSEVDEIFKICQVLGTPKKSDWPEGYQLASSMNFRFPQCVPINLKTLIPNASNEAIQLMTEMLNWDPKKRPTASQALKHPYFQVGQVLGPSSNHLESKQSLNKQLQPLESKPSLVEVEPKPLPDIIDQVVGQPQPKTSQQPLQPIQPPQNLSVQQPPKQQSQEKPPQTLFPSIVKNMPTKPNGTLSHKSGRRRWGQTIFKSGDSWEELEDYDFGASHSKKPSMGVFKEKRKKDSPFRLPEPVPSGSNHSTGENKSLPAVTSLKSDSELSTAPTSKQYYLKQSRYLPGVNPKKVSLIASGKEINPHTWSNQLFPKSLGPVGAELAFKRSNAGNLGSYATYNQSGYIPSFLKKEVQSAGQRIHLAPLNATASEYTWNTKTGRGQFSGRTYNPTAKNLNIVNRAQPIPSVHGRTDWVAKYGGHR
From the text: (§1) However, the Aurora A/B selectivity ratios derived from our in vitro and in vivo data can be compared to prioritize inhibitors.

[2] = target: 363 human kinases (including Aurora A/B/C) (Homo sapiens, UniProt Q16513); details: PKN2/PRK2; for remaining activity at 0.1 µM: 100 nM; for remaining activity at 0.1 µM / remaining activity at 0.5 µM: read-out: % Enzyme Activity (relative to DMSO controls)
From the text: as §1

[3] = target: T2, 363 human kinases (including Aurora A/B/C) (Homo sapiens, UniProt P53778); details: P38g; for remaining activity at 0.1 µM: 100 nM; for remaining activity at 0.1 µM / remaining activity at 0.5 µM: read-out: % Enzyme Activity (relative to DMSO controls)
T2 sequence (P53778 1-367): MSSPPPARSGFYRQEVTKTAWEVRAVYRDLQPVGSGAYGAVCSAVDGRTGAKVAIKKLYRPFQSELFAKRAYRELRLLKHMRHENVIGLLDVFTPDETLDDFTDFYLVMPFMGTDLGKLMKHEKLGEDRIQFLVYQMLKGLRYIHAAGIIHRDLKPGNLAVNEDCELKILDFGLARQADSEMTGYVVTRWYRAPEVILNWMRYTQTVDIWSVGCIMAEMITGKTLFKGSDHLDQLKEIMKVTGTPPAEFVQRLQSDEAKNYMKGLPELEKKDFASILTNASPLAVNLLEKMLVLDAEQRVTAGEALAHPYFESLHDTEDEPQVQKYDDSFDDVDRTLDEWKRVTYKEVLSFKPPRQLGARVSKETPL
From the text: as §1

[4] = target: T3, 363 human kinases (including Aurora A/B/C) (Homo sapiens, UniProt P42681); details: TXK; for remaining activity at 0.1 µM: 100 nM; for remaining activity at 0.1 µM / remaining activity at 0.5 µM: read-out: % Enzyme Activity (relative to DMSO controls)
T3 sequence (P42681 1-527): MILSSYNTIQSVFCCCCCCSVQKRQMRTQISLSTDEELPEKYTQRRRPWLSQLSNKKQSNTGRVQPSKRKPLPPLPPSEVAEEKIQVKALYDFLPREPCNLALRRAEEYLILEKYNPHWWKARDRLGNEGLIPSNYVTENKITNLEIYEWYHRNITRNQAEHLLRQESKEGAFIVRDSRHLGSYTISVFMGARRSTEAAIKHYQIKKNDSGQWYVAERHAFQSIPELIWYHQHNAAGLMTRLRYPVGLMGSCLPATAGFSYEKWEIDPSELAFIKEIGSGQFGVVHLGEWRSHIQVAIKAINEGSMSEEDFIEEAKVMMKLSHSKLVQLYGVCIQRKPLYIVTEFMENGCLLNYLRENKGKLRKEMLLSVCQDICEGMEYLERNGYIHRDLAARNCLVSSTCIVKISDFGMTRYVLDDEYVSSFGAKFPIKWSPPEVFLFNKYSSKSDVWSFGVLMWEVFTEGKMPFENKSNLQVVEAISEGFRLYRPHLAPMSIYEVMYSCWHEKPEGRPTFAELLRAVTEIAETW
From the text: as §1

[5] = target: 363 human kinases (including Aurora A/B/C) (Homo sapiens, UniProt Q9Y6M4); details: CK1g3, [ATP] 10 µM; for remaining activity at 0.1 µM: 100 nM; for remaining activity at 0.1 µM / remaining activity at 0.5 µM: read-out: % Enzyme Activity (relative to DMSO controls)
From the text: as §1

[6] = target: 363 human kinases (including Aurora A/B/C) (Homo sapiens, UniProt P80192); details: MLK1/MAP3K9; for remaining activity at 0.1 µM: 100 nM; for remaining activity at 0.1 µM / remaining activity at 0.5 µM: read-out: % Enzyme Activity (relative to DMSO controls)
From the text: as §1

[7] = target: T4, 363 human kinases (including Aurora A/B/C) (Homo sapiens, UniProt Q9UKI8); details: TLK1; for remaining activity at 0.1 µM: 100 nM; for remaining activity at 0.1 µM / remaining activity at 0.5 µM: read-out: % Enzyme Activity (relative to DMSO controls)
T4 sequence (Q9UKI8 1-766): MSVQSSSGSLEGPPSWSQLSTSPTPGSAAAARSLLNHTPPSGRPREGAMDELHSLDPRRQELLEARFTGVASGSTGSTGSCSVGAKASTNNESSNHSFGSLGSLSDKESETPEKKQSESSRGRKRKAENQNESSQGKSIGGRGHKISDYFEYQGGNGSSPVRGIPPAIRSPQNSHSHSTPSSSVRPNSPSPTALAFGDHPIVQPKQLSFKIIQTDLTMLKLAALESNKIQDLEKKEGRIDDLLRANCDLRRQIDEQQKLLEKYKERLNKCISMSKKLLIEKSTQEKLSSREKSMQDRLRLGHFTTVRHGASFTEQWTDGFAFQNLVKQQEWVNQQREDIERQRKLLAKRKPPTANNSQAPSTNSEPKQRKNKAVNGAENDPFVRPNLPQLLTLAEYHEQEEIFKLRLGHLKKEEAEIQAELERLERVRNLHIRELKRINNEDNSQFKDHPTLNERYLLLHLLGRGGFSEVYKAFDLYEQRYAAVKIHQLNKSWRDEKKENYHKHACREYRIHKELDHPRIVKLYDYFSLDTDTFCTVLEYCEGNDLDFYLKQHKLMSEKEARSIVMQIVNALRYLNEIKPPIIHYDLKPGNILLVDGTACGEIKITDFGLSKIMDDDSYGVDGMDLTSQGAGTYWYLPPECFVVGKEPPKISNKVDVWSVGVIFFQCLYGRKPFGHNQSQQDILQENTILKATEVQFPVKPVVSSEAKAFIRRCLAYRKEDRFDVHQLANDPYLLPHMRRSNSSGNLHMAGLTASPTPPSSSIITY
From the text: as §1

363 human kinases (including Aurora A/B/C) (Homo sapiens, UniProt P80192), sequence (P80192 whole entry): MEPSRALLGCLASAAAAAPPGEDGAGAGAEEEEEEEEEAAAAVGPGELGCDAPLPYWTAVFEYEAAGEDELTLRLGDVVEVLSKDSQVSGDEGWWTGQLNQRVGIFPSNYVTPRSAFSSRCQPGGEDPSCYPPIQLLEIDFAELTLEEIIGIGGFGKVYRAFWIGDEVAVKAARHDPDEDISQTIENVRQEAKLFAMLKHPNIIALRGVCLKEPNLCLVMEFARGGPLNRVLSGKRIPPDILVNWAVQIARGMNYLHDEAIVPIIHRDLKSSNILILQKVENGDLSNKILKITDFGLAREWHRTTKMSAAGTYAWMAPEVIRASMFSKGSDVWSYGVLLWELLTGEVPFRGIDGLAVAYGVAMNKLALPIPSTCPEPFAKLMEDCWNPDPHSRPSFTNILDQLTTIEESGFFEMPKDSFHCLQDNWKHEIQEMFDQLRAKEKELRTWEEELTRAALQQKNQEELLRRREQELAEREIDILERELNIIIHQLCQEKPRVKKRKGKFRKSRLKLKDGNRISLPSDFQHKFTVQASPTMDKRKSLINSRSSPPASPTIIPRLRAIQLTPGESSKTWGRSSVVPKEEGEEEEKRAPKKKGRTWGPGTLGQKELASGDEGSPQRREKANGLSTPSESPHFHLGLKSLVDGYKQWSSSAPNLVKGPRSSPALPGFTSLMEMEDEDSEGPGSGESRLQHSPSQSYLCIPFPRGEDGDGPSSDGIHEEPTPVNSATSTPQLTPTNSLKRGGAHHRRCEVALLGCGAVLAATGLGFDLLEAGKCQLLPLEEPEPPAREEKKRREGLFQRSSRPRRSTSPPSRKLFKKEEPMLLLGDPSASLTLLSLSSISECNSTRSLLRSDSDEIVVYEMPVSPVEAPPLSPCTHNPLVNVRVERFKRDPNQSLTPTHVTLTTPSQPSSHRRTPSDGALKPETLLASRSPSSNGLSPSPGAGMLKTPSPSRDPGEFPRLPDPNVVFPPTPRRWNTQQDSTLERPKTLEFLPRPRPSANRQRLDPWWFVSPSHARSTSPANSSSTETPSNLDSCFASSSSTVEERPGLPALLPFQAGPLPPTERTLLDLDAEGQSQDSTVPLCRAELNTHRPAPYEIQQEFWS
363 human kinases (including Aurora A/B/C) (Homo sapiens, UniProt Q9Y6M4), sequence (Q9Y6M4 whole entry): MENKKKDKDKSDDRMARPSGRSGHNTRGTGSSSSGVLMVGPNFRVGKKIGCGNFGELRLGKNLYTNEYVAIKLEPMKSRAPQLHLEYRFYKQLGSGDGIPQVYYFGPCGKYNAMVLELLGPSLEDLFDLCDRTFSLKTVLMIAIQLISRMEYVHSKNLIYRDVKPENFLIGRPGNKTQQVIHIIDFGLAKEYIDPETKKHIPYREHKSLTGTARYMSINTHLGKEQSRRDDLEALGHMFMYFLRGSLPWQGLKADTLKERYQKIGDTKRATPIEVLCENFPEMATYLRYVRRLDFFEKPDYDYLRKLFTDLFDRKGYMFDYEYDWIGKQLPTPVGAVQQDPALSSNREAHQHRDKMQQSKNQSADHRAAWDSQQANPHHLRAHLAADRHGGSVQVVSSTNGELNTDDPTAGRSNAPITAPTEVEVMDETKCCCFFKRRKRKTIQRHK
363 human kinases (including Aurora A/B/C) (Homo sapiens, UniProt Q16513), sequence (Q16513 whole entry): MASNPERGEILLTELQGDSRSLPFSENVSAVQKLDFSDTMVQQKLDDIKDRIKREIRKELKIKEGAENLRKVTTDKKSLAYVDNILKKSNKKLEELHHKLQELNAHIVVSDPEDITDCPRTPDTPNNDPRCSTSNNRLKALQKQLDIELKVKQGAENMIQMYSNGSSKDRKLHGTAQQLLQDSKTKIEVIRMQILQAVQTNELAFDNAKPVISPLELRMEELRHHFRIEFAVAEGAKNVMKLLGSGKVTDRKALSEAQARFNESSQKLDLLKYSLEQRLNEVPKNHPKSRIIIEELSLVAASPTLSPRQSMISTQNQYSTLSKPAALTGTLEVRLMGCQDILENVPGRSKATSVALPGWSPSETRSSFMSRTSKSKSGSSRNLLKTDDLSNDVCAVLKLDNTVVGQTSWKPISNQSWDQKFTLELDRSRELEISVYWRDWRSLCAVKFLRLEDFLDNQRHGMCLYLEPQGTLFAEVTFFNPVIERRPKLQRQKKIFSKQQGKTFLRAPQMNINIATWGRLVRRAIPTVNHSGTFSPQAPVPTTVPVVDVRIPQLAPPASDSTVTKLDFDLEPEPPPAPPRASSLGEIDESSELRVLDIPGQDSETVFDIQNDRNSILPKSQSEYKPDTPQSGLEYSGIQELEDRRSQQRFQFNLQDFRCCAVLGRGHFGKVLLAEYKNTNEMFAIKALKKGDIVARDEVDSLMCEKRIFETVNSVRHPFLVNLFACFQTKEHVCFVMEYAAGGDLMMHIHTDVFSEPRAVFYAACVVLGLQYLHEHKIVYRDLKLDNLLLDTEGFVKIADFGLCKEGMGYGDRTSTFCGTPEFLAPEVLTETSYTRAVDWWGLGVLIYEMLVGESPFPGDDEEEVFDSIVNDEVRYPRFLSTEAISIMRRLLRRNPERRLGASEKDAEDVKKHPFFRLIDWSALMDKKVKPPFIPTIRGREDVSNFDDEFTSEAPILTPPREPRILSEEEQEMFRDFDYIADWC

SMILES | remaining activity at 0.1 µM [1] [%] | remaining activity at 0.1 µM [2] [%] | remaining activity at 0.1 µM [3] [%] | remaining activity at 0.1 µM [4] [%] | remaining activity at 0.1 µM [5] [%] | remaining activity at 0.1 µM [6] [%] | remaining activity at 0.1 µM [7] [%] | remaining activity at 0.5 µM ([1]; 500 nM) [%] | remaining activity at 0.5 µM ([2]; 500 nM) [%] | remaining activity at 0.5 µM ([3]; 500 nM) [%] | remaining activity at 0.5 µM ([4]; 500 nM) [%] | remaining activity at 0.5 µM ([5]; 500 nM) [%] | remaining activity at 0.5 µM ([6]; 500 nM) [%] | remaining activity at 0.5 µM ([7]; 500 nM) [%] | other results
CCn1cc(-c2ccnc3[nH]c(-c4cccc(CN(C)C)c4)cc23)c(-c2ccc(NC(=O)N(C)C)cc2)n1 [GSK1070916] | 100 | 115 | 115 | 86.3 | 95 | 97.6 | 120 |  |  |  |  |  |  |  | 
O=C(c1cccc(Cl)c1F)N1CCN(Cc2cccc(Nc3nccs3)n2)CC1 [MK-8745] |  |  |  |  |  |  |  | 87 | 104 | 110 | 80.3 | 98.6 | 102 | 125 | % Enzyme Activity (relative to DMSO controls) ([1]; 500 nM): 86.85%; % Enzyme Activity (relative to DMSO controls) ([2]; 500 nM): 103.16%; % Enzyme Activity (relative to DMSO controls) ([3]; 500 nM): 107.28%; % Enzyme Activity (relative to DMSO controls) ([4]; 500 nM): 80.24%; % Enzyme Activity (relative to DMSO controls) ([5]; 500 nM): 98.01%; % Enzyme Activity (relative to DMSO controls) ([6]; 500 nM): 101.78%; % Enzyme Activity (relative to DMSO controls) ([7]; 500 nM): 119.91%
O=C(O)[C@]1(Cc2cccc(Nc3nccs3)n2)CC[C@@H](Oc2cccc(Cl)c2F)CC1 [MK-5108] | 84.8 | 108 | 100 | 35.6 | 100 | 88.5 | 95.7 | 79.5 | 108 | 112 | 10.5 | 94.6 | 64.3 | 116 | 
